Experimental data reported in patent publication US20250171457A1, “NITROGEN-CONTAINING HETEROCYCLIC COMPOUND HAVING NRF2 ACTIVATION EFFECT” (CHUGAI SEIYAKU KABUSHIKI KAISHA, priority 2022, published 2025).

System: Nrf2 transcriptional activity (pARE-Luc reporter) in HepG2 cells
Assay: In vitro Nrf2 transcriptional activity measurement by ARE-dependent reporter assay in HepG2 cell
Type: cell-based, human
Settings: Homo sapiens; HepG2 cells transfected with pARE-Luc, 4 hours at 37° C.; luciferase activity of Example 1-54 or Example 17-23 at 3.75 μM defined as 100%
Procedure, shortened: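 HepG2 cells transfected with pGL4.37 (pARE-Luc), replated onto compound and incubated 4 h at 37° C; luciferase read by Bright-Glo luminescence. Response normalized to 100% set by a reference compound at 3.75 μM; EC50 from dose-response curve.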

SMILES	EC50
O=C(O)c1cc(F)c(-c2cccc3c2OCN(C(=O)c2c(Cl)cc(N4CC5CCC(C4)O5)cc2Cl)C3)cc1N1C2CCC1COC2 [Compound 1-37, 4-[3-[2,6-Dichloro-4-(8-oxa-3-azabicyclo[3.2.1]octan-3-yl)benzoyl]-2,4-dihydro-1,3-benzoxazin-8-yl]-5-fluoro-2-(3-oxa-8-azabicyclo[3.2.1]octan-8-yl)benzoic acid]	2.1 nM
CCOc1cc(Cl)c(C(=O)N2COc3c(cccc3-c3cc(N4C5CCC4COC5)c(C(=O)O)cc3F)C2)c(Cl)c1 [Compound 4-39, 4-[3-(2,6-Dichloro-4-ethoxybenzoyl)-2,4-dihydro-1,3-benzoxazin-8-yl]-5-fluoro-2-(3-oxa-8-azabicyclo[3.2.1]octan-8-yl)benzoic acid]	6.9 nM
COc1cc(C(=O)N2COc3c(cccc3-c3cc(N4CCOCC4)c(C(=O)O)cc3F)C2)c(Cl)cc1N1CC2(COC2)C1 [Compound 1-73, 4-[3-[2-Chloro-5-methoxy-4-(2-oxa-6-azaspiro[3.3]heptan-6-yl)benzoyl]-2,4-dihydro-1,3-benzoxazin-8-yl]-5-fluoro-2-morpholin-4-ylbenzoic acid]	5.1 nM
O=C(O)c1cc(F)c(-c2cccc3c2OCN(C(=O)c2c(Cl)cc(OC[C@@H]4COCCO4)cc2Cl)C3)cc1N1C2CCC1COC2 [Compound 4-42, 4-[3-[2,6-Dichloro-4-[[(2S)-1,4-dioxan-2-yl]methoxy]benzoyl]-2,4-dihydro-1,3-benzoxazin-8-yl]-5-fluoro-2-(3-oxa-8-azabicyclo[3.2.1]octan-8-yl)benzoic acid]	4.4 nM
O=C(O)c1cc(F)c(-c2cccc3c2OCN(C(=O)c2c(Cl)cc(N4C5CC4CN(C4CC(F)(F)C4)C5)cc2Cl)C3)cc1N1C2CCC1COC2 [Compound 9-21, 4-[3-[2,6-Dichloro-4-[3-(3,3-difluorocyclobutyl)-3,6-diazabicyclo[3.1.1]heptan-6-yl]benzoyl]-2,4-dihydro-1,3-benzoxazin-8-yl]-5-fluoro-2-(3-oxa-8-azabicyclo[3.2.1]octan-8-yl)benzoic acid]	6 nM
COCCN1CC2CC(C1)N2c1cc(Cl)c(C(=O)N2COc3c(cccc3-c3cc(N4C5CCC4COC5)c(C(=O)O)cc3F)C2)c(Cl)c1 [Compound 7-10, 4-[3-[2,6-Dichloro-4-[3-(2-methoxyethyl)-3,6-diazabicyclo[3.1.1]heptan-6-yl]benzoyl]-2,4-dihydro-1,3-benzoxazin-8-yl]-5-fluoro-2-(3-oxa-8-azabicyclo[3.2.1]octan-8-yl)benzoic acid]	27 nM
O=C(O)c1cc(F)c(-c2cccc3c2OCN(C(=O)c2c(Cl)cc(N4CC5(C4)CN(C4COC4)C5)cc2Cl)C3)cc1N1CCOCC1 [Compound 10-11, 4-[3-[2,6-Dichloro-4-[2-(oxetan-3-yl)-2,6-diazaspiro[3.3]heptan-6-yl]benzoyl]-2,4-dihydro-1,3-benzoxazin-8-yl]-5-fluoro-2-morpholin-4-ylbenzoic acid]	2.4 nM
Cn1ncc2cc(-c3cc(Cl)c(C(=O)N4COc5c(cccc5-c5cc(N6C7CCC6COC7)c(C(=O)O)cc5F)C4)c(Cl)c3)cnc21 [Compound 3-14, 4-[3-[2,6-Dichloro-4-(1-methylpyrazolo[3,4-b]pyridin-5-yl)benzoyl]-2,4-dihydro-1,3-benzoxazin-8-yl]-5-fluoro-2-(3-oxa-8-azabicyclo[3.2.1]octan-8-yl)benzoic acid]	8.8 nM
COC1(C)CN(c2cc(Cl)c(C(=O)N3COc4c(cccc4-c4cc(N5C6CCC5COC6)c(C(=O)O)cc4F)C3)c(Cl)c2)C1 [Compound 4-5, 4-[3-[2,6-Dichloro-4-(3-methoxy-3-methylazetidin-1-yl)benzoyl]-2,4-dihydro-1,3-benzoxazin-8-yl]-5-fluoro-2-(3-oxa-8-azabicyclo[3.2.1]octan-8-yl)benzoic acid]	1.3 nM
O=C(O)c1cc(F)c(-c2cccc3c2OCN(C(=O)c2c(Cl)cc(N4CCN(CC(F)F)CC4)cc2Cl)C3)cc1N1C2CCC1COC2 [Compound 8-2, 4-[3-[2,6-Dichloro-4-[4-(2,2-difluoroethyl)piperazin-1-yl]benzoyl]-2,4-dihydro-1,3-benzoxazin-8-yl]-5-fluoro-2-(3-oxa-8-azabicyclo[3.2.1]octan-8-yl)benzoic acid]	4 nM
COc1cc(-c2cc(Cl)c(C(=O)N3COc4c(cccc4-c4cc(N5C6CCC5COC6)c(C(=O)O)cc4F)C3)c(Cl)c2)ccn1 [Compound 2-1, 4-[3-[2,6-Dichloro-4-(2-methoxypyridin-4-yl)benzoyl]-2,4-dihydro-1,3-benzoxazin-8-yl]-5-fluoro-2-(3-oxa-8-azabicyclo[3.2.1]octan-8-yl)benzoic acid]	6.2 nM
Cn1ncc2c(-c3cc(Cl)c(C(=O)N4COc5c(cccc5-c5cc(N6C7CCC6COC7)c(C(=O)O)cc5F)C4)c(Cl)c3)ccnc21 [Compound 3-16, 4-[3-[2,6-Dichloro-4-(1-methylpyrazolo[3,4-b]pyridin-4-yl)benzoyl]-2,4-dihydro-1,3-benzoxazin-8-yl]-5-fluoro-2-(3-oxa-8-azabicyclo[3.2.1]octan-8-yl)benzoic acid]	11 nM
COC1(C)CN(C2CN(c3cc(Cl)c(C(=O)N4COc5c(cccc5-c5cc(N6C7CCC6COC7)c(C(=O)O)cc5F)C4)c(Cl)c3)C2)C1 [Compound 11-2, 4-[3-[2,6-Dichloro-4-[3-(3-methoxy-3-methylazetidin-1-yl)azetidin-1-yl]benzoyl]-2,4-dihydro-1,3-benzoxazin-8-yl]-5-fluoro-2-(3-oxa-8-azabicyclo [3.2.1]octan-8-yl)benzoic acid]	4.2 nM
Cn1ncc2c(-c3cc(Cl)c(C(=O)N4COc5c(cccc5-c5cc(N6C7CCC6COC7)c(C(=O)O)cc5F)C4)c(Cl)c3)cncc21 [Compound 3-5, 4-[3-[2,6-Dichloro-4-(1-methylpyrazolo[3,4-c]pyridin-4-yl)benzoyl]-2,4-dihydro-1,3-benzoxazin-8-yl]-5-fluoro-2-(3-oxa-8-azabicyclo[3.2.1]octan-8-yl)benzoic acid]	6.9 nM
COc1ncc(-c2cc(Cl)c(C(=O)N3COc4c(cccc4-c4cc(N5C6CCC5COC6)c(C(=O)O)cc4F)C3)c(Cl)c2)c2nnn(C)c12 [Compound 3-27, 4-[3-[2,6-Dichloro-4-(4-methoxy-3-methyltriazolo[4,5-c]pyridin-7-yl)benzoyl]-2,4-dihydro-1,3-benzoxazin-8-yl]-5-fluoro-2-(3-oxa-8-azabicyclo[3.2.1]octan-8-yl)benzoic acid]	8.8 nM
O=C(O)c1cc(F)c(-c2cccc3c2OCN(C(=O)c2c(Cl)cc(N4CC5(CC(OC6CC6)C5)C4)cc2Cl)C3)cc1N1C2CCC1COC2 [Compound 11-10, 4-[3-[2,6-Dichloro-4-(6-cyclopropyloxy-2-azaspiro[3.3]heptan-2-yl)benzoyl]-2,4-dihydro-1,3-benzoxazin-8-yl]-5-fluoro-2-(3-oxa-8-azabicyclo[3.2.1]octan-8-yl)benzoic acid]	3.8 nM
COC[C@H](O)Cn1cc(-c2cc(Cl)c(C(=O)N3COc4c(cccc4-c4cc(N5CCOCC5)c(C(=O)O)cc4F)C3)c(Cl)c2)cn1 [Compound 15-3, 4-[3-[2,6-Dichloro-4-[1-[(2R)-2-hydroxy-3-methoxypropyl]pyrazol-4-yl]benzoyl]-2,4-dihydro-1,3-benzoxazin-8-yl]-5-fluoro-2-morpholin-4-ylbenzoic acid]	1.5 nM
Cc1c(F)c(-c2cccc3c2OCN(C(=O)c2c(Cl)cc(-c4cnn(C)c4)cc2Cl)C3)cc(N2CCOCC2)c1C(=O)O [Compound 13-3, 4-[3-[2,6-Dichloro-4-(1-methylpyrazol-4-yl)benzoyl]-2,4-dihydro-1,3-benzoxazin-8-yl]-3-fluoro-2-methyl-6-morpholin-4-ylbenzoic acid]	5.3 nM
COCCn1cc(-c2cc(Cl)c(C(=O)N3COc4c(cccc4-c4ccc(C(=O)O)c(N5CCOCC5)c4)C3)c(Cl)c2)cn1 [Compound 3-28, 4-[3-[2,6-Dichloro-4-[1-(2-methoxyethyl)pyrazol-4-yl]benzoyl]-2,4-dihydro-1,3-benzoxazin-8-yl]-2-morpholin-4-ylbenzoic acid]	2.1 nM
COc1cc(Cl)c(C(=O)N2COc3c(cccc3-c3cc(N4CCOCC4)c(C(=O)O)cc3F)C2)cc1C#N [Compound 18-3, 4-[3-(2-Chloro-5-cyano-4-methoxybenzoyl)-2,4-dihydro-1,3-benzoxazin-8-yl]-5-fluoro-2-morpholin-4-ylbenzoic acid]	14 nM
C[C@@H]1CN(c2cc(Cl)c(C(=O)N3COc4c(cccc4-c4cc(N5C6CCC5COC6)c(C(=O)O)cc4F)C3)c(Cl)c2)[C@H](C)CN1C [Compound 9-9, 4-[3-[2,6-Dichloro-4-[(2R,5R)-2,4,5-trimethylpiperazin-1-yl]benzoyl]-2,4-dihydro-1,3-benzoxazin-8-yl]-5-fluoro-2-(3-oxa-8-azabicyclo[3.2.1]octan-8-yl)benzoic acid]	1.5 nM
COC1CC2(C1)CN(c1cc(Cl)c(C(=O)N3COc4c(cccc4-c4cc(N5C6CCC5COC6)c(C(=O)O)cc4F)C3)c3nc(C)n(C)c13)C2 [Compound 19-16, 4-[3-[5-Chloro-7-(6-methoxy-2-azaspiro[3.3]heptan-2-yl)-1,2-dimethylbenzimidazole-4-carbonyl]-2,4-dihydro-1,3-benzoxazin-8-yl]-5-fluoro-2-(3-oxa-8-azabicyclo[3.2.1]octan-8-yl)benzoic acid]	17 nM
O=C(O)c1cc(F)c(-c2cccc3c2OCN(C(=O)c2c(Cl)cc(OC4CN(CC(F)(F)F)C4)cc2Cl)C3)cc1N1C2CCC1COC2 [Compound 8-8, 4-[3-[2,6-Dichloro-4-[1-(2,2,2-trifluoroethyl)azetidin-3-yl]oxybenzoyl]-2,4-dihydro-1,3-benzoxazin-8-yl]-5-fluoro-2-(3-oxa-8-azabicyclo[3.2.1]octan-8-yl)benzoic acid]	4.8 nM
CC[C@@H](c1cccc2c1CON(C(=O)c1c(Cl)cc(-c3cnn(C)c3)cc1Cl)C2)[C@H](C)C(=O)O [Compound 17-2, (2S,3R)-3-[3-[2,6-Dichloro-4-(1-methylpyrazol-4-yl)benzoyl]-1,4-dihydro-2,3-benzoxazin-8-yl]-2-methylpentanoic acid]	7.7 nM
